Structures can show the parent of a compound that is named as a salt.
target: GST-tagged truncated human mutant G2019S LRRK2 (Homo sapiens (Human), UniProt Q5S007, G2019S); test: LRRK2 G2019S Km ATP LanthaScreen assay; type: biochemical; conditions: G2019S LRRK2, 134 μM ATP (Km ATP), LRRKtide substrate
Outline: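 Ten-point compound series (highest 9.99 μM in DMSO) preincubated 15 min with 1.25 nM GST-tagged truncated human LRRK2 G2019S, then 90 min reaction at ambient temperature with 134 μM ATP (Km) and fluorescein-labelled LRRKtide, pH 8.5. Phosphorylation read as 520/495 nm emission ratio via Tb-labelled antibody; IC50 from 4P logistic regression.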

Chain of GST-tagged truncated human mutant G2019S LRRK2 (Q5S007 970-2527 G2019S): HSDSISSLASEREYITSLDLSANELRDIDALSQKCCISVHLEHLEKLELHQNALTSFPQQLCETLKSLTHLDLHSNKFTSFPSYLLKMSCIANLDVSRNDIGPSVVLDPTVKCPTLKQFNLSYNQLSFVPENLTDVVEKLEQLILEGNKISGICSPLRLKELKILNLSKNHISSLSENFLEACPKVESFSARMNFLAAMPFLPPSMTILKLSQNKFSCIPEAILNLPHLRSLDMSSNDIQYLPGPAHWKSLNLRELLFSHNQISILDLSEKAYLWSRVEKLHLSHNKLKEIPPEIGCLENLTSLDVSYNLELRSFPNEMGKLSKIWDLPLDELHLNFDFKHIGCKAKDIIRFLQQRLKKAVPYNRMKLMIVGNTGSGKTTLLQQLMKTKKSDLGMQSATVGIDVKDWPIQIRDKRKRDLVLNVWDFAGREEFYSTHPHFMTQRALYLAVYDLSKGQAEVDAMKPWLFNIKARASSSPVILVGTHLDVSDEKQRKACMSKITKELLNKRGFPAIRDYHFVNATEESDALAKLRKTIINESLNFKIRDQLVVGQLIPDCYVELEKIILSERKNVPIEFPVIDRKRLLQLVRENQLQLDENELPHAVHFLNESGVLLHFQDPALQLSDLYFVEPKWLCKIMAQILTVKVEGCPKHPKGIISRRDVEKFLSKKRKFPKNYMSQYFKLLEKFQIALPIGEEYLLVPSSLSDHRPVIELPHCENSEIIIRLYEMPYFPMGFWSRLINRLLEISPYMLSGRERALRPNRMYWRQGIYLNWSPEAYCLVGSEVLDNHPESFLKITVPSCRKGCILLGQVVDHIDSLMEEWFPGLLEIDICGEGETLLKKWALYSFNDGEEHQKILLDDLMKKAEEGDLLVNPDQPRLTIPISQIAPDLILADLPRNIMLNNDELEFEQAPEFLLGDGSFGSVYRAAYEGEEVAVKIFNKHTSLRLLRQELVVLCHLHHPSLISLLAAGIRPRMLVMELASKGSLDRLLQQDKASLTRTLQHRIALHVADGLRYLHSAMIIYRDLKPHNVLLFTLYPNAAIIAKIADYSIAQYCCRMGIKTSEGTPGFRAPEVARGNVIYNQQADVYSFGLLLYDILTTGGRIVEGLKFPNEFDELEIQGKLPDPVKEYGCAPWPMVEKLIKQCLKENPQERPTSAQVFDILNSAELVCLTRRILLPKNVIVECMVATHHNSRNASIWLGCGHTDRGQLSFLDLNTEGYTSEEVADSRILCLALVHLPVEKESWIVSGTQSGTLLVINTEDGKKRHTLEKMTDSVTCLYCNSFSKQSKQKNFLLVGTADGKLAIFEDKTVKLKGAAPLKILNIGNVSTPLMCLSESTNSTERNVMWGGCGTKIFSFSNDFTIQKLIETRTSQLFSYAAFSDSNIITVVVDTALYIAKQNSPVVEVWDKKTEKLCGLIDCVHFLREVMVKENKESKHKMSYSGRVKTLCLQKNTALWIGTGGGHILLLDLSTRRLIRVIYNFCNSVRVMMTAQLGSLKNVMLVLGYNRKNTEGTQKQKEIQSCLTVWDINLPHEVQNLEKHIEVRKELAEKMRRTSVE

Row | SMILES | LRRK2 pIC50
1 | Cc1nn(C2CCC2)c2c1OC[C@@H]1COC[C@H]1Nc1nc(ncc1C(F)(F)F)N2 [Ex-5.1, (10aS,13aS)-3-cyclobutyl-1-methyl-8-(trifluoromethyl)-3,4,10a,11,13a,14-hexahydro-10H,13H-5,9-(azeno)furo[3,4-k]pyrazolo[4,3-b][1]oxa[4,6,10]triazacyclotridecine] | >10.09
2 | Cc1nn(C2CC2)c2c1OC[C@@H]1COC[C@H]1Nc1nc(ncc1C(F)(F)F)N2 [Ex-5.2, (10aS,13aS)-3-cyclopropyl-1-methyl-8-(trifluoromethyl)-3,4,10a,11,13a,14-hexahydro-10H,13H-5,9-(azeno)furo[3,4-k]pyrazolo[4,3-b][1]oxa[4,6,10]triazacyclotridecine] | 9.46
3 | C=CCn1nc(C)c2c1Nc1ncc(C(F)(F)F)c(n1)N[C@@H]1COC[C@H]1CO2 [Ex-5.3, (10aS,13aS)-3-allyl-1-methyl-8-(trifluoromethyl)-3,4,10a,11,13a,14-hexahydro-10H,13H-5,9-(azeno)furo[3,4-k]pyrazolo[4,3-b][1]oxa[4,6,10]triazacyclotridecine] | 7.30
4 | Cc1nn(C2CCC2)c2c1OCC1CCCC1Nc1nc(ncc1C(F)(F)F)N2 [Ex-5.4, (10aR,13aR)- or (10aS,13aS)-3-cyclobutyl-1-methyl-8-(trifluoromethyl)-3,4,10a,11,12,13,13a,14-octahydro-10H-5,9-(azeno)cyclopenta[k]pyrazolo[4,3-b][1]oxa[4,6,10]triazacyclotridecine] | 6.78
5 | Cc1nn(C2CCC2)c2c1OCC1CCCC1Nc1nc(ncc1C(F)(F)F)N2 [Ex-5.5, (10aR,13aR)- or (10aS,13aS)-3-cyclobutyl-1-methyl-8-(trifluoromethyl)-3,4,10a,11,12,13,13a,14-octahydro-10H-5,9-(azeno)cyclopenta[k]pyrazolo[4,3-b][1]oxa[4,6, 10]triazacyclotridecine] | 10.06
6 | COC(=O)c1nn(C2CCC2)c2c1OC[C@@H]1COC[C@H]1Nc1nc(ncc1C(F)(F)F)N2 [Ex-5.6, methyl (10aS,13aS)-3-cyclobutyl-8-(trifluoromethyl)-3,4,10a,11,13a,14-hexahydro-10H,13H-5,9-(azeno)furo[3,4-k]pyrazolo[4,3-b][1]oxa[4,6,10]triazacyclotridecine-1-carboxylate] | 9.80
7 | CC(C)n1nc(CO)c2c1Nc1ncc(C(F)(F)F)c(n1)N[C@@H]1CC[C@H]1CO2 [Ex-6.5, ((10aR,12aR)-3-isopropyl-8-(trifluoromethyl)-3,4,10,10a,11,12,12a,13-octahydro-5,9-(azeno)cyclobuta[k]pyrazolo[4,3-b][1]oxa[4,6,10]triazacyclotridecin-1-yl)methanol] | >10.09
8 | OCc1nn(C2CCC2)c2c1OC[C@@H]1COC[C@H]1Nc1nc(ncc1C(F)(F)F)N2 [Ex-6.6, ((10aS,13aS)-3-cyclobutyl-8-(trifluoromethyl)-3,4,10a,11,13a,14-hexahydro-10H,13H-5,9-(azeno)furo[3,4-k]pyrazolo[4,3-b][1]oxa[4,6,10]triazacyclotridecin-1-yl)methanol] | >10.09
9 | CC(C)n1nc(CO)c2c1Nc1ncc(C(F)(F)F)c(n1)N[C@@H]1COC[C@H]1CO2 [Ex-6.7, ((10aS,13aS)-3-isopropyl-8-(trifluoromethyl)-3,4,10a,11,13a,14-hexahydro-10H,13H-5,9-(azeno)furo[3,4-k]pyrazolo[4,3-b][1]oxa[4,6,10]triazacyclotridecin-1-yl)methanol] | >10.09
10 | Cc1nn(C(C)(C)CO)c2c1Nc1ncc(C(F)(F)F)c(n1)N[C@H](C)CCO2 [Ex-7.3, (R)-2-(3,11-dimethyl-8-(trifluoromethyl)-10,11,12,13-tetrahydro-5,9-(azeno)pyrazolo[3,4-b][1]oxa[4,6,10]triazacyclotridecin-1(4H)-yl)-2-methylpropan-1-ol] | >10.09
11 | CC(C)c1nn(C(C)(C)CO)c2c1Nc1ncc(C(F)(F)F)c(n1)N[C@H](C)CCO2 [Ex-7.4, (R)-2-(3-isopropyl-11-methyl-8-(trifluoromethyl)-10,11,12,13-tetrahydro-5,9-(azeno)pyrazolo[3,4-b][1]oxa[4,6,10]triazacyclotridecin-1(4H)-yl)-2-methylpropan-1-ol] | >10.09
12 | CC(C)c1nn(C(C)(C)CO)c2c1Nc1ncc(C(F)(F)F)c(n1)N[C@@H]1COC[C@H]1CO2 [Ex-7.5, 2-((10aS,13aS)-3-isopropyl-8-(trifluoromethyl)-10a,11,13a,14-tetrahydro-10H,13H-5,9-(azeno)furo[3,4-k]pyrazolo[3,4-b][1]oxa[4,6,10]triazacyclotridecin-1(4H)-yl)-2-methylpropan-1-ol] | >10.09
13 | Cc1cnc2nc1N[C@H](C)CCOc1c(c(C)nn1C(C)(C)CO)N2 [Ex-8.1, (R)-2-methyl-2-(3,8,11-trimethyl-10,11,12,13-tetrahydro-5,9-(azeno)pyrazolo[3,4-b][1]oxa[4,6,10]triazacyclotridecin-1 (4H)-yl)propan-1-ol] | >10.09
14 | CC(C)c1nn(C(C)(C)CO)c2c1N(C)c1ncc(C(F)(F)F)c(n1)N[C@H](C)CCO2 [Ex-9.1, (R)-2-(3-isopropyl-4,11-dimethyl-8-(trifluoromethyl)-10,11,12,13-tetrahydro-5,9-(azeno)pyrazolo[3,4-b][1]oxa[4,6,10]triazacyclotridecin-1 (4H)-yl)-2-methylpropan-1-ol] | 6.11
15 | CC(C)c1nn(C2CS(=O)(=O)C2)c2c1Nc1ncc(C(F)(F)F)c(n1)N[C@@H]1CC[C@H]1CO2 [Ex-10.1, 3-((10aR,12aR)-3-isopropyl-8-(trifluoromethyl)-10,10a,11,12,12a,13-hexahydro-5,9-(azeno)cyclobuta[k]pyrazolo[3,4-b][1]oxa[4,6,10]triazacyclotridecin-1 (4H)-yl) thietane 1,1-dioxide] | >10.09
16 | Cc1nn(C2CCC2)c2c1OC[C@@H]1COC[C@H]1Nc1cc(ncc1C(F)(F)F)N2 [Ex-13.1, (10aR,13aR)-3-Cyclobutyl-1-methyl-8-(trifluoromethyl)-3,4,10a,11,13a,14-hexahydro-10H,13H-5,9-(metheno)furo[3,4-k]pyrazolo[4,3-b][1]oxa[4,6,10]triazacyclotridecine, TFA] | >10.09
17 | Cc1nn(C2CCC2)c2c1OC[C@H]1COC[C@@H]1Nc1cc(ncc1C(F)(F)F)N2 [Ex-13.2, (10aR,13aR)-3-cyclobutyl-1-methyl-8-(trifluoromethyl)-3,4,10a,11,13a,14-hexahydro-10H,13H-5,9-(metheno)furo[3,4-k]pyrazolo[4,3-b][1]oxa[4,6,10]triazacyclotridecine] | 7.01
18 | Cc1nn(C2CCC2)c2c1OC[C@@H]1CC[C@H]1Nc1cc(ncc1Cl)N2 [Ex-13.3, (10aR,12aR)-8-chloro-3-cyclobutyl-1-methyl-3,4,10,10a,11,12,12a,13-octahydro-5,9-(metheno)cyclobuta[k]pyrazolo[4,3-b][1]oxa[4,6,10]triazacyclotridecine] | >10.09
19 | Cc1nn(C(C)C)c2c1OC[C@@H]1CC[C@H]1Nc1cc(ncc1Cl)N2 [Ex-13.4, (10aR,12aR)-8-chloro-3-isopropyl-1-methyl-3,4,10,10a,11,12,12a,13-octahydro-5,9-(metheno)cyclobuta[k]pyrazolo[4,3-b][1]oxa[4,6,10]triazacyclotridecine] | 9.61
20 | Cc1nn(C(C)C)c2c1OC[C@@H]1COC[C@H]1Nc1cc(ncc1C(F)(F)F)N2 [Ex-13.5, (10aS,13aS)-3-isopropyl-1-methyl-8-(trifluoromethyl)-3,4,10a,11,13a,14-hexahydro-10H,13H-5,9-(metheno)furo[3,4-k]pyrazolo[4,3-b][1]oxa[4,6,10]triazacyclotridecine] | >10.09
21 | Cc1nn(C2CCC2)c2c1OC[C@@H]1CC[C@H]1Nc1cc(ncc1F)N2 [Ex-13.6, (10aR,12aR)-3-cyclobutyl-8-fluoro-1-methyl-3,4,10,10a,11,12,12a,13-octahydro-5,9-(metheno)cyclobuta[k]pyrazolo[4,3-b][1]oxa[4,6,10]triazacyclotridecine] | <5.00
22 | Cc1nn(C2CCC2)c2c1OC[C@@H]1CC[C@H]1Nc1cc(ncc1F)N2 [Ex-13.7, (10aR,12aR)-3-cyclobutyl-8-fluoro-1-methyl-3,4,10,10a,11,12,12a,13-octahydro-5,9-(metheno)cyclobuta[k]pyrazolo[4,3-b][1]oxa[4,6,10]triazacyclotridecine] | 5.02
23 | Cc1nn(C2CCC2)c2c1OC[C@@H]1COC[C@H]1Nc1cc(ncc1F)N2 [Ex-13.8, (10aR,13aR)-3-cyclobutyl-8-fluoro-1-methyl-3,4,10a,11,13a,14-hexahydro-10H,13H-5,9-(metheno)furo[3,4-k]pyrazolo[4,3-b][1]oxa[4,6,10]triazacyclotridecine] | <5.00
24 | Cn1nc(C(F)(F)F)c2c1Nc1cc(c(Cl)cn1)N[C@@H]1COC[C@H]1CO2 [Ex-13.9, (10aS,13aS)-8-chloro-3-methyl-1-(trifluoromethyl)-3,4,10a,11,13a,14-hexahydro-10H,13H-5,9-(metheno)furo[3,4-k]pyrazolo[4,3-b][1]oxa[4,6,10]triazacyclotridecine] | 8.49
25 | Cc1nn(C2CC2)c2c1OC[C@@H]1CC[C@H]1Oc1nc(ncc1C(F)(F)F)N2 [Ex-14.1, (10aR,13aS)- or (10aS,13aR)-3-Cyclopropyl-1-methyl-8-(trifluoromethyl)-3,4,10a,11,12a,13-hexahydro-12H-5,9-(azeno)cyclobuta[k]pyrazolo[4,3-b][1,10]dioxa[4,6]diazacyclotridecine] | 8.78
26 | Cc1nn(C2CC2)c2c1OC[C@H]1CC[C@@H]1Oc1nc(ncc1C(F)(F)F)N2 [Ex-14.2, (10aR,13aS)- or (10aS,13aR)-3-Cyclopropyl-1-methyl-8-(trifluoromethyl)-3,4,10a,11,12a,13-hexahydro-12H-5,9-(azeno)cyclobuta[k]pyrazolo[4,3-b][1,10]dioxa[4,6]diazacyclotridecine] | 5.16
27 | COc1cccc2c1Nc1ncc(C(F)(F)F)c(n1)N[C@H]1COC[C@@H]1CO2 [Ex-15.1] | >10.09
